Measured values taken from patent publication US6525001B1, “Substituted pyrimidine and pyridine herbicides” (Mid-American Commercialization Corporation, priority 1997, dated 2003).

Tests used:
Format in all cases: in vivo
[1] = system: windgrass (Apera spica-venti); test: Test D; set-up: key: 0 is no effect; 100 is complete control; settings: PREEMERGENCE
[2] = system: winter wheat (Triticum aestivum); test: Test D; settings: PREEMERGENCE
[3] = system: chickweed (Stellaria media); test: Test D; settings: PREEMERGENCE
[4] = system: alexandergrass (Brachiaria plantaginea); test: Test E pre-/postemergence/post directed; set-up: key: 0 is no effect; 100 is complete control; settings: PREEMERGENCE, Rate 250 g/ha
In short: (§1)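 Injury scored visually on a 0–100 scale (100 = complete control) 13 to 21 days after treatment. Test chemicals, formulated with surfactant in non-phytotoxic solvent, were applied to soil within one day of planting, to plants at two to four leaves (three to twenty cm), or as directed spray at plant base.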

B. signalgrass = test: Test E pre-/postemergence/post directed; set-up: key: 0 is no effect; 100 is complete control; settings: PREEMERGENCE
In short: as §1

[5] = system: pitted morningglory (Ipomoea lacunosa); test: Test E pre-/postemergence/post directed; set-up: key: 0 is no effect; 100 is complete control; settings: PREEMERGENCE
In short: as §1

[6] = system: arrowleaf sida (Sida rhombifolia); test: Test E pre-/postemergence/post directed; set-up: key: 0 is no effect; 100 is complete control; settings: PREEMERGENCE
In short: as §1

[7] = system: common chickweed (Stellaria media); test: Test E pre-/postemergence/post directed; set-up: key: 0 is no effect; 100 is complete control; settings: PREEMERGENCE
In short: as §1

[8] = system: annual bluegrass (Poa annua); test: Test E pre-/postemergence/post directed; set-up: key: 0 is no effect; 100 is complete control; settings: PREEMERGENCE
In short: as §1

[9] = system: sandbur (Cenchrus echinatus); test: Test E pre-/postemergence/post directed; set-up: key: 0 is no effect; 100 is complete control; settings: PREEMERGENCE, Rate 250 g/ha
In short: as §1

[10] = system: johnson grass (Sorghum halepense); test: Test E pre-/postemergence/post directed; set-up: key: 0 is no effect; 100 is complete control; settings: PREEMERGENCE, Rate 250 g/ha
In short: as §1

[11] = system: Spanishneedles (Bidens bipinnata); test: Test E pre-/postemergence/post directed; set-up: key: 0 is no effect; 100 is complete control; settings: PREEMERGENCE, Rate 250 g/ha
In short: as §1

[12] = system: quackgrass (Agropyron repens); test: Test E pre-/postemergence/post directed; set-up: key: 0 is no effect; 100 is complete control; settings: PREEMERGENCE
In short: as §1

[13] = system: blackgrass (Alopecurus myosuroides); test: Test D; settings: PREEMERGENCE
[14] = system: green foxtail (Setaria viridis); test: Test D; set-up: key: 0 is no effect; 100 is complete control; settings: PREEMERGENCE
[15] = system: ivyleaf speedwell (Veronica hederaefolia); test: Test D; set-up: key: 0 is no effect; 100 is complete control; settings: PREEMERGENCE
[16] = system: littleseed canarygrass (Phalaris minor); test: Test D; settings: PREEMERGENCE
[17] = system: wild mustard (Sinapis arvensis); test: Test D; set-up: key: 0 is no effect; 100 is complete control; settings: PREEMERGENCE
[18] = system: sugar beet (Beta vulgaris); test: Test D; set-up: key: 0 is no effect; 100 is complete control; settings: PREEMERGENCE
[19] = system: common poppy (Papaver rhoeas); test: Test D; set-up: key: 0 is no effect; 100 is complete control; settings: PREEMERGENCE
[20] = system: Russian thistle (Salsola kali); test: Test D; set-up: key: 0 is no effect; 100 is complete control; settings: PREEMERGENCE
[21] = system: wild buckwheat (Polygonum convolvulus); test: Test D; settings: PREEMERGENCE

Cc1cnc(-c2ccc(C(F)(F)F)cc2)nc1Cc1cccc(C(F)(F)F)c1 [Example 1, 5-methyl-2-[4-(trifluoromethyl)phenyl]-4-[[3-(trifluoromethyl)phenyl]methyl]pyrimidine]
Plant response rating, Windgrass ([1]; Rate 31 g/ha): 60 | Plant response rating, Windgrass ([1]; Rate 62 g/ha): 100 | Plant response rating, Windgrass ([1]; Rate 125 g/ha): 100 | Plant response rating, Windgrass ([1]; Rate 250 g/ha): 100 | Plant response rating, Wheat (winter) ([2]; Rate 31 g/ha): 10 | Plant response rating, Wheat (winter) ([2]; Rate 62 g/ha): 10 | Plant response rating, Wheat (winter) ([2]; Rate 125 g/ha): 20 | Plant response rating, Wheat (winter) ([2]; Rate 250 g/ha): 40 | Plant response rating, Chickweed ([3]; Rate 31 g/ha): 55 | Plant response rating, Chickweed ([3]; Rate 62 g/ha): 85 | Plant response rating, Chickweed ([3]; Rate 125 g/ha): 85 | Plant response rating, Chickweed ([3]; Rate 250 g/ha): 90 | Plant response rating, Alexandergrass [4]: 100 | Plant response rating, B. signalgrass (B. signalgrass; Rate 32 g/ha): 20 | Plant response rating, B. signalgrass (B. signalgrass; Rate 64 g/ha): 90 | Plant response rating, B. signalgrass (B. signalgrass; Rate 125 g/ha): 100 | Plant response rating, P. morninglory ([5]; Rate 125 g/ha): 100 | Plant response rating, P. morninglory ([5]; Rate 250 g/ha): 100 | Plant response rating, Arrowleaf sida ([6]; Rate 32 g/ha): 98 | Plant response rating, Arrowleaf sida ([6]; Rate 64 g/ha): 98 | Plant response rating, Arrowleaf sida ([6]; Rate 125 g/ha): 100 | Plant response rating, Com. chickweed ([7]; Rate 32 g/ha): 30 | Plant response rating, Com. chickweed ([7]; Rate 64 g/ha): 95 | Plant response rating, Com. chickweed ([7]; Rate 125 g/ha): 100 | Plant response rating, A. bluegrass ([8]; Rate 32 g/ha): 90 | Plant response rating, A. bluegrass ([8]; Rate 64 g/ha): 100 | Plant response rating, A. bluegrass ([8]; Rate 125 g/ha): 100 | Plant response rating, Sandbur [9]: 100 | Plant response rating, Johnsongrass [10]: 100 | Plant response rating, Spanishneedles [11]: 100 | Plant response rating, Quackgrass ([12]; Rate 32 g/ha): 65 | Plant response rating, Quackgrass ([12]; Rate 64 g/ha): 80 | Plant response rating, Quackgrass ([12]; Rate 125 g/ha): 100 | Plant response rating, Blackgrass ([13]; Rate 31 g/ha): 30 | Plant response rating, Blackgrass ([13]; Rate 62 g/ha): 50 | Plant response rating, Blackgrass ([13]; Rate 125 g/ha): 60 | Plant response rating, Blackgrass ([13]; Rate 250 g/ha): 70 | Plant response rating, Green foxtail ([14]; Rate 31 g/ha): 60 | Plant response rating, Green foxtail ([14]; Rate 62 g/ha): 100 | Plant response rating, Green foxtail ([14]; Rate 125 g/ha): 100 | Plant response rating, Green foxtail ([14]; Rate 250 g/ha): 100 | Plant response rating, Ivyleaf speedwe ([15]; Rate 31 g/ha): 50 | Plant response rating, Ivyleaf speedwe ([15]; Rate 62 g/ha): 100 | Plant response rating, Ivyleaf speedwe ([15]; Rate 125 g/ha): 100 | Plant response rating, Ivyleaf speedwe ([15]; Rate 250 g/ha): 100 | Plant response rating, LS canarygrass ([16]; Rate 31 g/ha): 20 | Plant response rating, LS canarygrass ([16]; Rate 62 g/ha): 60 | Plant response rating, LS canarygrass ([16]; Rate 125 g/ha): 85 | Plant response rating, LS canarygrass ([16]; Rate 250 g/ha): 70 | Plant response rating, Wild mustard ([17]; Rate 31 g/ha): 60 | Plant response rating, Wild mustard ([17]; Rate 62 g/ha): 100 | Plant response rating, Wild mustard ([17]; Rate 125 g/ha): 100 | Plant response rating, Wild mustard ([17]; Rate 250 g/ha): 98 | Plant response rating, Sugar beet ([18]; Rate 31 g/ha): 30 | Plant response rating, Sugar beet ([18]; Rate 62 g/ha): 100 | Plant response rating, Sugar beet ([18]; Rate 125 g/ha): 85 | Plant response rating, Sugar beet ([18]; Rate 250 g/ha): 100 | Plant response rating, Common poppy ([19]; Rate 31 g/ha): 80 | Plant response rating, Common poppy ([19]; Rate 62 g/ha): 100 | Plant response rating, Common poppy ([19]; Rate 125 g/ha): 100 | Plant response rating, Common poppy ([19]; Rate 250 g/ha): 100 | Plant response rating, Russian thistle ([20]; Rate 31 g/ha): 10 | Plant response rating, Russian thistle ([20]; Rate 62 g/ha): 100 | Plant response rating, Russian thistle ([20]; Rate 250 g/ha): 100 | Plant response rating, Wild buckwheat ([21]; Rate 31 g/ha): 40 | Plant response rating, Wild buckwheat ([21]; Rate 62 g/ha): 80 | Plant response rating, Wild buckwheat ([21]; Rate 125 g/ha): 85 | Plant response rating, Wild buckwheat ([21]; Rate 250 g/ha): 85
